Data set [1] deals with Cyclin-dependent kinase 2/cyclin A (Homo sapiens) (UniProt P24941+P20248+P78396). Kind of data set: Inhibition of CDK2/cyclin A (unknown origin) using […] at 1 uM incubated for 40 mins in presence of ATP by Kinase-Glo assay relative to control. Format: protein-complex assay.
In data set [2] the test system is HCT-116. The experiment in a line: Induction of cell cycle arrest in human HCT-116 cells assessed as accumulation at G1/G0 phase at 0.8 uM incubated for 24 hrs by PI staining based flow cytometry (reference value: 58.29 +/- 2.01 %). Format: functional.
Data set [3] has as its system HeLa. The experiment in a line: Induction of cell cycle arrest in human HeLa cells assessed as accumulation at G1/G0 phase at 3.6 uM incubated for 24 hrs by PI staining based flow cytometry (reference value: 57.63 +/- 1.7 %). Type of data set: functional.
Data set [4] concerns HCT-116. Kind of data set: Induction of cell cycle arrest at G2/M phase in human HCT-116 cells assessed as decrease in cyclin B1 level at 0.4 uM by Western blot analysis. The settings on record: time <= 48.0 hrs. Type of data set: functional, cell-based.
Data set [5] deals with HCT-116. The experiment in a line: Induction of apoptosis in human HCT-116 cells assessed as early apoptotic cells at 0.4 uM incubated for 24 hrs by PI staining based flow cytometry (reference value: 0.19 %). Type of data set: functional.
Data set [6] concerns HeLa. The experiment in a line: Induction of apoptosis in human HeLa cells assessed as viable cells at 3.6 uM incubated for 24 hrs by PI staining based flow cytometry (reference value: 68.9 %). Type of data set: functional. Particulars: read-out: Activity.
Data set [7] relates to HeLa. The experiment in a line: Induction of apoptosis in human HeLa cells assessed as early apoptotic cells at 3.6 uM incubated for 24 hrs by PI staining based flow cytometry (reference value: 0.8 %). Format: functional.
Data set [8] deals with HeLa. Kind of data set: Induction of apoptosis in human HeLa cells assessed as increase in p53 level upto 3.6 uM incubated for 24 hrs by Western blot analysis. Type of data set: functional, cell-based.
Data set [9] is described as follows: Toxicity in Balb/c-nu nude mouse xenografted with human HCT-116 cells assessed as toxicity in liver at 35 to 70 mg/kg/day, po treated for 30 days by H and E staining based analysis. Format: organism-based. The settings on record: in vivo, 720 h, dose 35-70 mg/kg/day, time 30 day.

Calls of active or inactive are those of the source. No cut-off for these calls is given here.

Turning to `Cc1cnc(Nc2ccc(S(N)(=O)=O)cc2)nc1Nc1nccs1`, in [1], the inhibition was found to be 99.5%. The Activity in data set [2] was 43.88%; in data set [3], 39.16%; in [4], “Time-dependent-effect”; in [5], 17.9%; in [7] it was 61%; in data set [9], “Non-toxic”. Besides, the viability at 3.6 µM in data set [6] stood at 11.7%. The result in data set [8] was Active.

The values are drawn from ChEMBL document CHEMBL6096697, “Structure-Guided Discovery of Novel N4-(Substituted Thiazol-2-yl)-N2-(4-Substituted phenyl)pyrimidine-2,4-Diamines as Potent CDK2 and CDK9 Dual Inhibitors with High Oral Bioavailability” (J Med Chem, 2025).
